What all share (assay type): cell-based
The target in experiment [1] is T1, SNORF25 receptor (UniProt Q7TQN8).
T1 construct: Emax of cAMP response
T1 sequence (Q7TQN8 1-468): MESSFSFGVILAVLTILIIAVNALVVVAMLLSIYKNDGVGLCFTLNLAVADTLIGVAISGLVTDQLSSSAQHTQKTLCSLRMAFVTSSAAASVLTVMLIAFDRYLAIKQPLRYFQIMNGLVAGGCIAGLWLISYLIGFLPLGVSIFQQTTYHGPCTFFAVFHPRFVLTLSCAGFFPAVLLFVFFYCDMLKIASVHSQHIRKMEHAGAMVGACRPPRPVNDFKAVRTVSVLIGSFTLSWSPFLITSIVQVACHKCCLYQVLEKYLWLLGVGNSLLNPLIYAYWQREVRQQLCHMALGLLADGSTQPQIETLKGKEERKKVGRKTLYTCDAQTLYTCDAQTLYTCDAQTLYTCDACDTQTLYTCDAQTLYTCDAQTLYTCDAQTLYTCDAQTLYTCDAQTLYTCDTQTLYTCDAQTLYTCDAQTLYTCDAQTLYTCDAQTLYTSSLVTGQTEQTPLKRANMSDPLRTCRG
The experiment can be described thus: cAMP release in Cos-7 cells transiently transfected with SNORF25. To be noted: SNORF25 transiently transfected Cos-7 cells (FIG. 8). As to the method:
COS-7 cells are grown on 150 mm plates in DMEM with supplements (Dulbecco's Modified Eagle Medium with 10% bovine calf serum, 4 mM glutamine, 100 units/ml penicillin/100 μg/ml streptomycin) at 37° C., 5% CO2. Stock plates of COS-7 cells are trypsinized and split 1:6 every 3–4 days.
(§1) A typical protocol for the electroporation method as applied to Cos-7 cells is described as follows. Cells to be used for transfection are split 24 hours prior to the transfection to provide flasks which are subconfluent at the time of transfection. The cells are harvested by trypsinization resuspended in their growth media and counted. 5×10^6 cells are suspended in 300 μl of DMEM and placed into an electroporation cuvette. 8 μg of receptor DNA plus 8 μg of any additional DNA needed (e.g. G protein expression vector, reporter construct, antibiotic resistance marker, mock vector, etc.) is added to the cell suspension, the cuvette is placed into a BioRad Gene Pulser and subjected to an electrical pulse (Gene Pulser settings: 0.25 kV voltage, 950 μF capacitance). […]
(§2) The receptor-mediated stimulation or inhibition of cyclic AMP (cAMP) formation may be assayed in cells expressing the receptors. […] The plates are stored at 4° C. for 15 min, and the cAMP content in the stopping solution is measured by radioimmunoassay. Radioactivity may be quantified using a gamma counter equipped with data reduction software. […]

In experiment [2] the target is T2, serotonin 5-HT4 receptor (Homo sapiens, UniProt Q13639).
T2 construct: expressed in transfected cells; host or cells: Cos-7 cells
The experiment is described as follows: cAMP in Cos-7 cells transfected with serotonin 5-HT4 receptor. Particulars: 10 μM, serotonin 5-HT4 (FIG. 7). As to the method:
as §1, with “capacitance). Following the pulse, 800 μl of complete DMEM is added to each cuvette and the suspension transferred to a sterile tube. Complete medium is added to each tube to bring the final cell concentration to 1×10^5 cells/100 μl.” for “capacitance).”
as §2

Experiment [3] deals with T3, dopamine D1 receptor (Homo sapiens, UniProt P21728).
T3 construct: expressed in transfected cells; host or cells: Cos-7 cells
The experiment is described as follows: cAMP in Cos-7 cells transfected with dopamine D1 receptor. To be noted: 10 μM, dopamine D1 (FIG. 7). As to the method: as §1, with “capacitance). Following the pulse, 800 μl of complete DMEM is added to each cuvette and the suspension transferred to a sterile tube. Complete medium is added to each tube to bring the final cell concentration to 1×10^5 cells/100 μl.” for “capacitance).”
as §2

The target of experiment [4] is T4, SNORF25 (Homo sapiens, UniProt Q8TDV5).
T4 sequence (Q8TDV5 1-335): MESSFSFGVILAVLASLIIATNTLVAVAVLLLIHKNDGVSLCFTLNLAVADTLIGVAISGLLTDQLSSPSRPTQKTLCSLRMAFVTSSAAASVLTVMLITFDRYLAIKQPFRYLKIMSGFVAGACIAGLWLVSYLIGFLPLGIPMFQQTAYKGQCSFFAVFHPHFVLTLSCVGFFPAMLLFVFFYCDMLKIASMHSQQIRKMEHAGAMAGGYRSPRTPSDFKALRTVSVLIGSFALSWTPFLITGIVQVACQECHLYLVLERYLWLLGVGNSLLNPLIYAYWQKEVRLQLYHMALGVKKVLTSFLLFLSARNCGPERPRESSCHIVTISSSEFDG
The experiment is described as follows: Stimulation of cAMP release by CHO cells stably expressing hSNORF25 receptors. The arrangement: expressed in transfected cells. As to the method: CHO cells are grown on 150 mm plates in HAM's F-12 medium with supplements (10% bovine calf serum, 4 mM L-glutamine and 100 units/ml penicillin/100 μg/ml streptomycin) at 37° C., 5% CO2. Stock plates of CHO cells are trypsinized and split 1:8 every 3–4 days.
Heterologous DNA can be stably incorporated into host cells, causing the cell to perpetually express a foreign protein. Methods for the delivery of the DNA into the cell are similar to those described above for transient expression but require the co-transfection of an ancillary gene to confer drug resistance on the targeted host cell. The ensuing drug resistance can be exploited to select and maintain cells that have taken up the DNA. An assortment of resistance genes are available including but not restricted to neomycin, kanamycin, and hygromycin. For the purposes of studies concerning the receptor of this invention, stable expression of a heterologous receptor protein is typically carried out in, mammalian cells including but not necessarily restricted to, CHO, HEK293, LM(tk−), etc.
(§3) The receptor-mediated stimulation or inhibition of cyclic AMP (cAMP) formation may be assayed in cells expressing the receptors. According to one method, cells are plated in 96-well plates or other vessels and preincubated in a buffer such as HEPES buffered saline (NaCl (150 mM), CaCl2 (1mM), KCl (5 mM), glucose (10 mM)) supplemented with a phosphodiesterase inhibitor such as 5 mM theophylline, with or without protease inhibitor cocktail (For example, a typical inhibitor cocktail contains 2 μg/ml aprotinin, 0.5 mg/ml leupeptin, and 10 μg/ml phosphoramidon.) for 20 min at 37° C., in 5% CO2. Test compounds are added with or without […] and incubated for an additional 10 min at 37° C. The medium is then aspirated and the reaction stopped by the addition of 100 mM HCl or other methods. The plates are stored at 4° C. for 15 min, and the cAMP content in the stopping solution is measured by radioimmunoassay. Radioactivity may be quantified using a gamma counter equipped with data reduction software. Specific modifications may be performed to optimize the assay for the receptor or to alter the detection method of cAMP.
as §3, with “According” for “The receptor-mediated stimulation or inhibition of cyclic AMP (cAMP) formation may be assayed in cells expressing the receptors. According”, “a second” for “one”, “washed 2 times with” for “plated in 96-well plates or other vessels and preincubated in a buffer such as”, “saline, as described above, and incubated overnight. On the day of the experiment, cells are washed 2 times with HEPES” for “saline (NaCl (150 mM), CaCl2 (1mM), KCl (5 mM), glucose (10 mM))”
Several other closely related analogues of PAF namely Lyso-PAF with different carbon chains also stimulated cAMP.

T2 sequence (Q13639 whole entry): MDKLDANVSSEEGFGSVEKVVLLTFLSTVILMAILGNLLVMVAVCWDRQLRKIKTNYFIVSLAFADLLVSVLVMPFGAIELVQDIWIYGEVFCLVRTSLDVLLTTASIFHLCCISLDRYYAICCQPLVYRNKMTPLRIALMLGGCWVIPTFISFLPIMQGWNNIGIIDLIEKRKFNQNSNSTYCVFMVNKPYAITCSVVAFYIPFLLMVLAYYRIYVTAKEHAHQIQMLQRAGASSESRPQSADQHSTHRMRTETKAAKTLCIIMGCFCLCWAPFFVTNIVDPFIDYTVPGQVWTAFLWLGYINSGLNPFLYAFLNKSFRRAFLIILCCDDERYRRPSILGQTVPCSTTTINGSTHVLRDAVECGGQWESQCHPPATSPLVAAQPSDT
T3 sequence (P21728 whole entry): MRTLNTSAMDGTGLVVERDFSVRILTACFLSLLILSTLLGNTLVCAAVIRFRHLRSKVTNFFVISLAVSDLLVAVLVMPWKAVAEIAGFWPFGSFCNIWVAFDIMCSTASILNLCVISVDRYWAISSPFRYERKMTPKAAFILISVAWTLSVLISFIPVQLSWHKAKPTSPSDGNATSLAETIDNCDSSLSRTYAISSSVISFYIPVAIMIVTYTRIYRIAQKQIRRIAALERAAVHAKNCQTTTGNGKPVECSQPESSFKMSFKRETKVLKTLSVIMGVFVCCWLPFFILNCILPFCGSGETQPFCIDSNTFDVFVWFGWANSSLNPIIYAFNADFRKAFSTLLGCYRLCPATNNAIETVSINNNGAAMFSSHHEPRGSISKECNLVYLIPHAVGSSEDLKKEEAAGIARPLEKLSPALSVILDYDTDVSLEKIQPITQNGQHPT

For the compound `CC1=C(/C=C/C(C)=C/C=C/C(C)=C/C(=O)O)C(C)(C)CCC1` [ATRA, all-trans-retinoic acid], the “Emax of cAMP response” value in experiment [1] was 200–300%. For the same compound, the cAMP response result in experiment [2] and in experiment [3] was “no response” each time. Also, the “potency lower than PAF(C18)” value in experiment [4] (cAMP release, SNORF25 stable CHO cells (FIG. 11B)) is around 3 fold. Moreover, in experiment [4] (maximum response as % of maximum response produced by PAF(C18) (taken as 100%)), the “% of PAF(C18) Response” value worked out at 105%. Further, in experiment [4] (mean ± S.E.M., at least 3 experiments, CHO cells stably expressing hSNORF25), the EC50 (in general, the concentration giving half of the maximal effect) is 1440 ± 652 nM.

For the origin of these results see patent US7416848B2, “DNA encoding SNORF25 receptor” (H. Lundbeck A/S, priority 1999, dated 2008).
